Reference: the NIST ThermoML archive (doi:10.1016/j.jct.2007.05.004)

Legend:
[1] = xn = mol fraction of the nth substance listed; settings: 101 kPa, Liquid
[2] = 101 kPa, Liquid

CCO [ethanol] + O
[1]
Settings	mass density, 293.15 K [kg/m3]	mass density, 298.15 K [kg/m3]	mass density, 303.15 K [kg/m3]	viscosity, 293.15 K [mPa·s]	viscosity, 298.15 K [mPa·s]	viscosity, 303.15 K [mPa·s]
x2 = 0	789.75	785.46	781.15	1.187	1.082	0.987
x2 = 0.0501	795.99	791.68	787.35	1.277	1.153	1.046
x2 = 0.0986	802.09	797.77	793.41	1.371	1.232	1.111
x2 = 0.1961	814.88	810.54	806.14	1.549	1.38	1.237
x2 = 0.2961	829.05	824.7	820.29	1.735	1.531	1.357
x2 = 0.3991	845.25	840.94	836.55	1.975	1.659	1.515
x2 = 0.4971	862.82	–	–	2.225	–	–
x2 = 0.5989	884.07	879.89	875.63	2.479	2.115	1.821
x2 = 0.6991	908.69	904.65	900.55	2.705	2.275	1.941
x2 = 0.8001	937.33	933.65	929.9	2.7	2.3	1.937
x2 = 0.8996	965.71	963.24	960.61	2.223	1.86	1.58
x2 = 0.9499	979.28	977.72	975.93	1.63	1.388	1.207

COC(C)=O [methyl ethanoate] + CO
[1]
Settings	mass density, 293.15 K [kg/m3]	mass density, 298.15 K [kg/m3]	mass density, 303.15 K [kg/m3]	viscosity, 293.15 K [mPa·s]	viscosity, 298.15 K [mPa·s]	viscosity, 303.15 K [mPa·s]
x2 = 0	933.56	926.98	920.34	0.386	0.367	0.348
x2 = 0.0471	930.26	923.71	917.1	0.378	0.359	0.341
x2 = 0.0982	926.48	919.95	913.37	0.378	0.361	0.342
x2 = 0.1983	918.39	911.96	905.46	0.379	0.366	0.348
x2 = 0.2912	909.97	903.65	897.26	0.382	0.364	0.347
x2 = 0.4015	898.52	892.35	886.12	0.394	0.37	0.351
x2 = 0.5006	886.79	880.78	874.71	0.404	0.382	0.36
x2 = 0.5878	875.07	869.25	863.35	0.416	0.392	0.371
x2 = 0.7017	857.33	851.73	846.09	0.442	0.416	0.393
x2 = 0.8015	838.91	833.57	828.19	0.472	0.443	0.417
x2 = 0.9008	817.51	812.45	807.37	0.521	0.486	0.455
x2 = 0.9504	805.16	800.29	795.38	0.551	0.516	0.483

O [water] + CO
[1], x1 = 1
Settings	viscosity [mPa·s]
293.15 K	1.003
298.15 K	0.89
303.15 K	0.797

CO [methanol] + O
[1]
Settings	mass density, 293.15 K [kg/m3]	mass density, 298.15 K [kg/m3]	mass density, 303.15 K [kg/m3]	viscosity, 293.15 K [mPa·s]	viscosity, 298.15 K [mPa·s]	viscosity, 303.15 K [mPa·s]
x2 = 0	791.9	787.2	782.48	0.585	0.545	0.508
x2 = 0.049	800.06	795.47	790.84	0.655	0.607	0.563
x2 = 0.0993	808.62	804.11	799.56	0.735	0.677	0.627
x2 = 0.1973	826.11	821.73	817.31	0.9	0.821	0.751
x2 = 0.2983	845.03	840.79	836.5	1.086	0.987	0.889
x2 = 0.3985	864.67	860.59	856.45	1.287	1.15	1.032
x2 = 0.5003	885.57	881.69	877.32	1.481	1.309	1.164
x2 = 0.5994	906.58	902.96	899.26	1.673	1.463	1.289
x2 = 0.6997	928.45	925.21	921.89	1.793	1.554	1.342
x2 = 0.7986	949.8	947.17	944.42	1.789	1.542	1.342
x2 = 0.8999	971.59	969.84	967.9	1.522	1.317	1.147
x2 = 0.9512	983.86	982.53	980.97	1.274	1.121	0.996

COC(C)=O [methyl ethanoate]
[2]
Settings	mass density [kg/m3]	viscosity [mPa·s]
293.15 K	933.56	0.386
298.15 K	926.98	0.367
303.15 K	920.34	0.348

CO [methanol] + COC(C)=O
[1], x1 = 1
Settings	mass density [kg/m3]	viscosity [mPa·s]
293.15 K	791.9	0.585
298.15 K	787.2	0.545
303.15 K	782.48	0.508
